{"source": "PubChem BioAssay AID2305", "about": "(GlaxoSmithKline (GSK), 2010)"}
{"test_system": "P. falciparum 3D7 growth, pLDH absorbance", "assay": "P. falciparum 3D7 growth inhibition, dose response, strain 3D7 (AID 2305)", "units": {"IC50": "nM"}}
{"smiles": "N#Cc1ccc(Sc2nnc(-c3ccccc3Cl)n2CC2CCCCC2)cc1[N+](=O)[O-]", "IC50": 1160}
{"smiles": "COc1ccc2nccc(N3CCCN(CCNS(=O)(=O)c4ccc5c(c4)NC(=O)CS5)CC3)c2n1", "IC50": 820}
{"smiles": "COc1ccc(CCn2c(=N)c(C(=O)NCc3ccc(C)cc3)cc3c(=O)n4ccccc4nc32)cc1", "IC50": 1130}
{"smiles": "COc1ccccc1C1CCN(C2CCC(NC(=O)/C=C/c3cc(F)c(F)cc3F)CC2)CC1", "note": "(stereo not drawn)", "IC50": 1600}
{"smiles": "CO/C(=C\\C=C\\c1cc2cc(Cl)c(Cl)cc2[nH]1)C(=O)NCCCN1CCN(c2cccc(OCC(=O)Nc3cccc(C(=O)c4ccccc4)c3)c2)CC1", "IC50": 690}
{"smiles": "O=S(=O)(c1ccc(Oc2ccccc2)cc1)N(CCC(O)(C(F)(F)F)C(F)(F)F)Cc1cccc(O)c1", "IC50": 490}
{"smiles": "CCOC(=O)c1c(C)noc1Nc1ccc(OC)cc1", "IC50": 670}
{"smiles": "CC(C(=O)OCCOCn1cnc2c(=O)[nH]c(N)nc21)N(C)C(=O)OC(C)(C)C", "note": "(stereo not drawn)", "IC50": 1000}
{"smiles": "Cc1[nH]c(C)c(-c2ccc(Cl)cc2Cl)c(=O)c1Br", "IC50": 1010}
{"smiles": "O=C(Nc1ccccc1Oc1ccccc1)NC1CCN(c2ccnc3cc(Cl)ccc23)C1", "note": "(stereo not drawn)", "IC50": 170}
{"smiles": "COc1ccc(Oc2ccc(-c3c(C)[nH]c(C)cc3=O)cc2)cc1", "IC50": 610}
{"smiles": "N#Cc1cccc(-c2cnc(N)c(-c3nc4ccc(S(N)(=O)=O)cc4[nH]3)c2)c1", "IC50": 640}
{"smiles": "CN1CCC(NCc2cccc(-c3ccc(S(=O)(=O)NCCN4CCCC4)c(F)c3)c2)CC1", "IC50": 1010}
{"smiles": "CC(=O)c1c(Cc2cccc(C(F)(F)F)c2)c[nH]c1C", "IC50": 350}
{"smiles": "O=C(/C=C/c1ccc(Cl)c(Cl)c1)NCCCCCN1CCCC(CNC(=O)c2sc3ccccc3c2Cl)C1", "note": "(stereo not drawn)", "IC50": 870}
{"smiles": "CN(C)CCOc1ccnc2ccc(NC(=O)Cc3ccc(-c4ccncc4)c4ccccc34)cc12", "IC50": 280}
{"smiles": "CC(C)(C)C(=O)Oc1ccc(CC2NCCc3cc(OC(=O)C(C)(C)C)c(OC(=O)C(C)(C)C)cc32)cc1OC(=O)C(C)(C)C", "note": "(stereo not drawn)", "IC50": 420}
{"smiles": "Nc1ncc(-c2ccccc2)cc1-c1cccc2ncccc12", "IC50": 270}
{"smiles": "Cc1cc(N)nc2ccc(-c3cccc(CN)c3)cc12", "IC50": 710}
{"smiles": "Cc1cc(NCCC(=O)NCCOc2ccccc2)nc(NCCc2ccc(F)cc2)n1", "IC50": 940}
{"smiles": "CCOC(=O)C(C#N)NC(=O)C=Cc1ccccc1", "note": "(stereo not drawn)", "IC50": 800}
{"smiles": "CCCCCCOc1ccc(C(=O)N(Cc2ccccc2)c2c(-c3ccccc3)nc3cc(C)ccn23)cc1", "IC50": 770}
{"smiles": "CC[C@H](C)CNC(=O)c1cncc(-c2cccc(CNC3Cc4ccccc4C3)c2)c1", "IC50": 590}
{"smiles": "O=C(NC1CCC(CN2CCC(c3c[nH]c4ccccc34)CC2)CC1)c1ccc(-c2cc(C(F)(F)F)ccc2Cl)o1", "note": "(stereo not drawn)", "IC50": 710}
{"smiles": "CCN(CC)C(=NCCCCCCN=C(/N=C(\\N)Nc1ccc(Cl)c(Cl)c1)N(CC)CC)/N=C(\\N)Nc1ccc(Cl)c(Cl)c1", "IC50": 760}
{"smiles": "CN(C(=O)Nc1ccc(F)cc1)C1CCN(CCCCCNC(=O)/C=C/c2ccc(Cl)c(Cl)c2)CC1", "IC50": 890}
{"smiles": "Nc1c2ccccc2nc2ccc(-c3ccccc3)cc12", "IC50": 140}
{"smiles": "CC(Cc1ccc(NC(=O)c2ccc(CC(C)NCc3ccc(Cl)c(Cl)c3)cc2)cc1)NCCc1cccc(Cl)c1", "note": "(stereo not drawn)", "IC50": 1000}
{"smiles": "Cc1noc(C)c1-c1cccc(CNCc2ccc(-c3ccc(-c4nc5ccc(F)cc5[nH]4)cc3)cc2)c1", "IC50": 210}
{"smiles": "CCCCCCN1CCCN(Cc2cccc(NC(=O)c3cc4ccccc4s3)c2)CC1", "IC50": 660}
{"smiles": "CCOc1cc(C)ccc1N(C1CCN(CCCCNC(=O)c2ccc(-c3ccc(C(F)(F)F)cc3)cc2)CC1)S(=O)(=O)c1ccccc1", "IC50": 1020}
{"smiles": "CCN1CCN(c2cc(C)c3cc(NC(=O)c4ccc(OC)c([N+](=O)[O-])c4)ccc3n2)CC1", "IC50": 550}
{"smiles": "COc1cc(OC)cc(C(=O)Nc2ccc(Nc3nc(C)cc(N(C)C)n3)cc2)c1", "IC50": 650}
{"smiles": "O=C(Nc1ccc(C(=O)OCC(c2ccccc2)c2ccccc2)cc1)N[C@@H](Cc1ccc(O)cc1)C(=O)NC1CCN(Cc2ccc(O)cc2)C1", "note": "(stereo partly drawn)", "IC50": 780}
{"smiles": "COc1ccc(-c2cccc(NC(=O)c3ccc(Cl)cc3)c2)cc1CN1CCC(O)CC1", "IC50": 790}
{"smiles": "Clc1ccc(Cl)c2[nH]c(CNCCCNc3nc4ccccc4[nH]3)cc12", "IC50": 160}
{"smiles": "COc1cc2c(cc1OC)C(C)(C)CN1Cc3c(c(CO)c(OC)c(OC)c3OC)CC21", "note": "(stereo not drawn)", "IC50": 780}
{"smiles": "CCCCCn1c(Sc2ccc(C#N)c([N+](=O)[O-])c2)nnc1-c1ccc(OC)cc1", "IC50": 1140}
{"smiles": "Cc1cccc2[nH]c(-c3ccc(-c4cccc(NC(=O)C(=O)c5cccn5C)c4)cc3)nc12", "IC50": 980}
{"smiles": "CC(=O)Nc1ccc(CNC2Cc3ccc(-c4ccc(Cl)c(Cl)c4)cc3C2)cc1", "note": "(stereo not drawn)", "IC50": 1000}
{"smiles": "O=C(Nc1ccc2c(c1)OCO2)NC1CCN(c2ccnc(Nc3ccc(F)cc3)n2)C1", "note": "(stereo not drawn)", "IC50": 740}
{"smiles": "Fc1cccc(COc2ccc(-n3ccc4c(NCCCn5ccnc5)ncnc43)cc2Cl)n1", "IC50": 1030}
{"smiles": "CC(C)CNCc1ccc(-c2cccc(CN(C(=O)Nc3ccccc3)C3CCN(Cc4ccccc4)CC3)c2)cc1", "IC50": 410}
{"smiles": "c1ccc2c(NCCc3cnc[nH]3)c3ccccc3nc2c1", "IC50": 1040}
{"smiles": "CC(C)(C)NC(=O)COC(=O)c1c2c(nc3ccccc13)C(=Cc1ccc3c(c1)OCO3)CCC2", "IC50": 740}
{"smiles": "COc1ccccc1-c1cc(C(=O)N2CCN(S(=O)(=O)c3ccc(C)cc3)CC2)[nH]n1", "IC50": 1160}
{"smiles": "CC(=O)Nc1cccc(NC(=O)CSc2ccc(-c3nc4ccccc4[nH]3)cn2)c1", "IC50": 560}
{"smiles": "O=c1cc(NCCCNCc2ccc3c(c2)OC(F)(F)O3)[nH]c2ccccc12", "IC50": 770}
